Results as given in patent US20090105278A1, “Selective inhibitors of human corticosteroid syntheses” (Universitat Des Saarlandes, priority 2004, published 2009).
Counter-ions that a name gives are not always drawn.

How the values were obtained:
human CYP11B1 = molecular target: T1, human CYP11B1 (Homo sapiens, UniProt P15538); assay: V79 MZh 11B1 cells inhibition test; assay type: cell-based; conditions: hamster fibroblasts which express human CYP11B1; deoxycorticosterone substrate 100 nM; read-out: IC50 V79 11B1 hCYP11B1
T1 construct: expressed in transfected cells; host or cells: V79 MZh11B1 (Chinese hamster lung fibroblasts)
T1 sequence (P15538 25-503): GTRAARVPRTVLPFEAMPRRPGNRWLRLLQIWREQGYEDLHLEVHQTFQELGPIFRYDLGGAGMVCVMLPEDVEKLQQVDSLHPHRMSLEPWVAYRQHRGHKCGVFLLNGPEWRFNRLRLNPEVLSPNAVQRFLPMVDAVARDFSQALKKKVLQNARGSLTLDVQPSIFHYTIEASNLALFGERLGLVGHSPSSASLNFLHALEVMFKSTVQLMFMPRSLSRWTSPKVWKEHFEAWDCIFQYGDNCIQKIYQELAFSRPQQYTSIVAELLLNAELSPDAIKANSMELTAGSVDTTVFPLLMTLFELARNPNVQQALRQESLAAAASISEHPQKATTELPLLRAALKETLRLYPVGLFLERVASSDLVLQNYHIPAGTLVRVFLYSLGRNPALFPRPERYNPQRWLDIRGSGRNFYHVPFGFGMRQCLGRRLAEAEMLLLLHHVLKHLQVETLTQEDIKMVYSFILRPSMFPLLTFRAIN
Experimental: Both cell lines were cultured in DMEM^+ containing […] and the antibiotics penicillin and streptomycin (10%) for protection from bacterial contamination. The cells were passaged every 2-3 days after treatment with trypsin/EDTA because the doubling rate was 1-2 days depending on the number of cells. […] When there was further need, freshly thawed cells were employed.
Thereafter, the plate was stored at 37° C. and […] in a CO2 incubator. […] Controls without inhibitor were treated in the same way. The enzyme reactions were quenched by extracting the supernatant with 500 μl of EtOAc. The samples were centrifuged (10,000 g, 2 min), the solvent was removed and evaporated.
It was calculated by determining the percent inhibition for at least 3 different inhibitor concentrations, which must all be in the linear range of the sigmoidal IC50 curve (log C/% inhibition).
The calculation was effected by linear regression. The values determined were used only if they formed a straight line with a reliability of […].
The plate was developed twice with the mobile solvent chloroform:methanol:water (300:20:1). Unlabeled 11-deoxycorticosterone and corticosterone were applied as a reference for the CYP11B1 reaction. For the CYP11B2 reaction, 11-deoxycorticosterone, corticosterone, 18-hydroxycorticosterone and aldosterone were used as references. The detection of the unlabeled references was effected at 260 nm. Subsequently, imaging plates (BAS MS2340, for ^14C samples, Raytest, Straubenhardt, Germany) were exposed to the HPTLC plates for 48 h. The imaging plates were scanned with the phosphoimager system Fuji FLA 3000 (Raytest, Straubenhardt, Germany), and the steroids were quantified.

human CYP17 = molecular target: T2, human CYP17 (Homo sapiens, UniProt P05093); assay: Percent inhibition of CYP17 (membrane fraction of E. coli pJL17/OR); assay type: biochemical; conditions: E. coli which expresses human CYP17, 5 mg/ml protein, progesterone substrate 2.5 μM, inhibitor 2.5 μM; for inhibition at 2.5 µM: read-out: % Inhibition human CYP17
T2 construct: made in house; host or cells: E. coli pJL17/OR (membrane fraction)
T2 sequence (P05093 1-508): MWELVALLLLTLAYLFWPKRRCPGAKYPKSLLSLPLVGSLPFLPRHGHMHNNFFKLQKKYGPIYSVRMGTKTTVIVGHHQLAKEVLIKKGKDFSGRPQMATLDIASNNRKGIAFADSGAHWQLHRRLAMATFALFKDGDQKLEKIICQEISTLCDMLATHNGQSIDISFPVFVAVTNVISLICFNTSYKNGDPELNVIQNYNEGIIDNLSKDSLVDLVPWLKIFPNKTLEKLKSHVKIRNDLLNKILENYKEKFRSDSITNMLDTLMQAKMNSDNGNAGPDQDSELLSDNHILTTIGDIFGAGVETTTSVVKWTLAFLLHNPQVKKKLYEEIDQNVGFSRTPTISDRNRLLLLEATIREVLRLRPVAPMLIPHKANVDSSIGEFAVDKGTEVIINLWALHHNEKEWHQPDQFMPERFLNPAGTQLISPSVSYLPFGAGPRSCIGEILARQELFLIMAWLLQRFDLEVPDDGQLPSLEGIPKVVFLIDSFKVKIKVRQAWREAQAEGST
How it was run: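 Membranes were isolated from E. coli pJL17/OR, which coexpresses human CYP17 with rat NADPH-P450-reductase, by lysozyme treatment, sonication and centrifugation at 50,000 g, then stored at −70° C. Reactions were started with diluted membrane suspension (0.8 to 1 mg of protein per ml), incubated at 37° C for 30 min, extracted with EtOAc and analyzed by HPLC. Inhibition was calculated from reduced substrate conversion versus DMSO controls.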

Row | IC50 (human CYP11B1) | inhibition at 2.5 µM (human CYP17) | Compound | % Inhibition human CYP17 (human CYP17)
1 | 1470 nM | 26% | Clc1ccc2c(c1)CC/C2=C\c1cccnc1 [Compound 7a, 3-[(E)-(5-Chloro-2.3-dihydro-1H-indane-1-ylidene)methyl]pyridine Hydrochloride] | –
2 | 888 nM | 14% | C(=C1/CCc2ccccc21)/c1cccnc1 [Compound 1a, 3-[(E)-2,3-Dihydro-1H-indane-1-ylidenemethyl]pyridine Hydrochloride] | –
3 | 270 nM | 28% | Clc1ccc2c(c1)CC/C2=C/c1cccnc1 [Compound 7b, 3-[(Z)-(5-Chloro-2,3-dihydro-1H-indane-1-ylidene)methyl]pyridine Hydrochloride] | –
4 | 1320 nM | 18% | C(=C1\CCc2ccccc21)/c1ccncc1 [Compound 2b, 4-[(Z)-2,3-Dihydro-1H-indane-1-ylidenemethyl]pyridine oxalate] | –
5 | 774 nM | 42% | Fc1cccc2c1CC/C2=C\c1cccnc1 [Compound 24a, 3-[(E)-(4-Fluoro-2,3-dihydro-1H-indane-1-ylidene)methyl]pyridine Hydrochloride] | –

The next lines start with the compound.

Row | Compound | IC50 (human CYP11B1) | inhibition at 2.5 µM (human CYP17) | % Inhibition human CYP17 (human CYP17)
6 | Fc1ccc2c(c1)CC/C2=C/c1cccc2cnccc12 [Compound 30b, 5-[(Z)-(5-Fluoro-2,3-dihydro-1H-indane-1-ylidene)methyl]isoquinoline Hydrochloride] | 374 nM | 65% | –
7 | C(=C1\CCc2ccccc21)/c1cnc[nH]1 [Compound 42b, 5-[(Z)-2,3-Dihydro-1H-ind-1-ylidenemethyl]-1H-imidazolium oxalate] | 6.1 nM | 1% | –
8 | C(=C1/CCc2ccccc21)/c1cnc[nH]1 [Compound 42a, 5-[(E)-2,3-Dihydro-1H-indane-1-ylidenemethyl]-1H-imidazole] | 25.9 nM | 11% | –
9 | Clc1ccc2c(c1)CC/C2=C\c1ccncc1 [Compound 8a, 4-[(E)-(5-Chloro-2,3-dihydro-1H-indane-1-ylidene)methyl]pyridine Hydrochloride] | 243 nM | 18% | –
10 | Brc1ccc2c(c1)CC/C2=C\c1ccncc1 [Compound 10a, 4-[(E)-(5-Bromo-2,3-dihydro-1H-indane-1-ylidene)methyl]pyridine Hydrochloride] | 948 nM | 24% | –
11 | COc1ccc2c(c1)CC/C2=C\c1cccnc1 [Compound 11a, 3-[(E)-(5-Methoxy-2,3-dihydro-1H-indane-1-ylidene)methyl]pyridine Hydrochloride] | 1450 nM | 36% | –
12 | 5-[(Z)-(5-Bromo-2,3-dihydro-1H-indene-1-ylidene)methyl]-1H-imidazolium oxalate [Compound 49b] | 23.5 nM | – | 15%
13 | Fc1ccc2c(c1)CC/C2=C\c1cncnc1 [Compound 28a, 5-[(E)-(5-Fluoro-2,3-dihydro-1H-indane-1-ylidene)methyl]pyrimidine Hydrochloride] | 3180 nM | 6% | –
14 | Fc1ccc2c(c1)CC/C2=C\c1ccncc1 [Compound 6a, 4-[(E)-(5-Fluoro-2,3-dihydro-1H-indane-1-ylidene)methyl]pyridine Hydrochloride] | 380 nM | 15% | –
